Patent US8466118B2, “Modulation of blood brain barrier protein expression” (Saint Louis University, priority 2007, dated 2013)
Oligonucleotides are written 5' to 3', each unit as a sugar letter and its base; * is a phosphorothioate linkage, no mark a phosphodiester; rarer units and linkages stand in square brackets, end groups in braces. Plain capitals give the bases only. No end group written: not given here. d = 2'-deoxy (DNA)

How the values were obtained:
[1] = system: mouse brain microvessels; assay: I-PACAP27 binding to isolated mouse brain microvessels; settings: for displacement of I-PACAP27 binding by unlabeled peptide: 50 nM unlabeled peptide, 2.5 min
Procedure: Binding Study. Freshly isolated microvessels (30 μg protein) were resuspended in 45 μl of incubation buffer (129 mM NaCl, 2.5 mM KCl, 7.4 mM Na2HPO4, 1.3 mM KH2PO4, 0.63 mM CaCl2, 0.74 mM MgSO4, 5.3 mM glucose, 0.1 mM ascorbic acid, pH 7.4) containing 1% bovine serum albumin (BSA). Microvessel protein levels were determined with the Biorad DC protein assay kit (Hercules, Calif.). Incubation buffer, PACAP27 (4 μl of 0.8 nM), and any additives as indicated below were mixed with the 45 μl suspension of cells to a final volume of 60 μl (to give a final PACAP27 concentration of 53 pM) and incubated for 2.5 min at room temperature unless otherwise specified. At the end of incubation, samples were assayed for protein-bound radioactivity by vacuum filtration through Gelman Sciences glass microfiber filters (Ann Arbor, Mich.) pretreated with 0.5% polyethyleneimine. Filters were washed three times with 4 ml of incubation buffer at 4° C. The radioactivity trapped on the filters was measured using a gamma-counter. Nonspecific binding was determined in the absence of microvessels and under the above conditions was 20% of the total binding (TB). The specific binding was calculated as total binding minus non-specific binding and expressed as a percentage. All experiments were performed in triplicate on at least three occasions and the results reported as means with their standard errors.
Inhibition of Specific Binding of PACAP27. Self-inhibition was tested by adding varying amounts of unlabeled PACAP27. The percent of specific binding was calculated by taking the % TB for microvessels incubated with 0.8 nM PACAP27 as 100% and without microvessel incubation as 0%. An n of 3 was used per concentration. The fmol specifically bound was calculated by dividing the percent of specific binding by 100 and multiplying by the pM (PACAP27 and any unlabeled PACAP27 combined) of the incubation solution and by the volume. This was plotted against the nM in the media and the relation fitted to a one-site hyperbolic binding model.
Inhibition of I-PACAP27 Binding by PACAP Related Peptides. The effects of 50 nM of unlabeled PACAP27, PACAP38, the PACAP antagonists PACAP 6-27 and PACAP 6-38 (Bachem, Torrance, Calif.), and VIP (Sigma, St. Louis, Mo.) on PACAP27 specific binding was determined. Results were expressed as percent of control.

[2] = target: Type-I binding sites; settings: anterior pituitary and hypothalamus, I-PACAP27 radioligand; cited from earlier work
[3] = target: T1, beta-F1 ATPase (Mus musculus, UniProt P56480); assay: Brain perfusion uptake of I-PACAP27/I-PACAP38 after iv antisense; format: in vivo; settings: single tail vein injection 24 h before study, 10 μg/mouse
T1 construct: from tissue; host or cells: brain / blood-brain barrier of living mice (CD-1; SAMP8 in the T-maze study)
Procedure: To test the effectiveness of PTS-6 antisenses after their intravenous administration, two month old male CD-1 mice kept on a 12/12 hour light/dark cycle with food and water freely available were given an injection by tail vein of 0.9% saline with or without 10 μg/mouse of each of the three antisenses. To determine the specificity of the PTS-6 antisense on I-PACAP27 efflux, three other antisenses were also injected iv. These were:
After 24 h, the mice were anesthetized with urethane and both jugular veins exposed. The thorax was opened, the descending thoracic aorta clamped, both jugular veins severed, and lactated Ringer's solution containing I-PACAP27 (250,000 cpm/ml) perfused through the left ventricle of the heart at the rate of 2 ml/min. ^131I-PACAP38 (hereafter referred to as I-PACAP38) was perfused in some mice treated with PTS-6 antisense. After 5 min, the perfusion was stopped and 20 ml of lactated Ringer's solution was infused through the left ventricle of the heart to wash out the vascular space of the brain. The level of radioactivity was determined in the brain and in an aliquot of the perfusion fluid and results expressed as the brain/perfusion ratio in units of μl/g.

[4] = Brain-to-blood efflux rate of icv P-Olg; format: in vivo, mouse; settings: for half-life of efflux from the brain: first 20 min after icv administration; for rate of brain efflux: icv injection
Procedure: First, mice were anesthetized with an i.p. injection of 40% urethane. After the scalp was removed, a hole was made through the cranium (1.0 mm lateral and 0.5 mm posterior to bregma) with a 26-gauge needle. All of the needle except 2.5 to 3.0 mm of the tip was covered by PE-10 tubing. […] Injections were made into the lateral ventricle (icv) with a 1.0 μl Hamilton syringe.
In experiments in which brain efflux of the cocktail PS-ODNs were determined, each P-Olg (either P-19 mer or P-23 mer) was studied separately. A P-Olg (5×10^3 cpm/μl) was administered by icv injection. Mice were then decapitated at 2, 5, and 20 min after injection and the brain was removed. The amount of radioactivity present in the brain was measured by a scintillation counter. The amount of radioactivity in the brain at t=0 was estimated in mice overdosed with urethane. […] Brains from these mice were removed 10 min after injection. The log of the mean % of the injected dose of radioactivity (amount detected/amount injected*100=% Inj Dose) in each brain was plotted against time (min) and linear regression analysis was used to create a line between these time points.

[5] = CNS pharmacokinetics of iv P-Olg (influx rate, saturability, capillary depletion, regional uptake); format: in vivo, mouse; settings: for distribution between brain capillaries and parenchyma (capillary depletion) / saturability of brain uptake: 30 min after iv; for distribution between brain capillaries and parenchyma (capillary depletion): with vascular washout; for saturability of brain uptake: co-administration of 10 μg unlabeled PS-ODN; for rate of brain uptake (Ki): iv (jugular), multiple-time regression 2-30 min; for mean regional uptake into hippocampus (HPC) versus frontal cortex (FC) and whole brain (WB): iv, 2-30 min
Procedure: For this analysis, the brain/serum ratios for time points ranging from 2 to 30 min after i.v. injection was plotted against their respective exposure times (Expt). Expt is used instead of real time because this value corrects for the clearance of the injected substance from the blood. Without this correction, the influx rate would be overestimated. […] Expt will be calculated using the following formula: Expt=[∫^toCp(t)dt]/Cpt, where t is time, Cp represents the level of radioactivity in the serum and Cpt is the level of radioactivity in the serum at time t.
(§1) Calculation of the percent of injected dose taken up per gram of tissue: For the purpose of these studies, mice were injected iv (into the jugular vein) with P-19 mer or P-23 mer (5×10^5 cpm/200 μl of Lactated Ringer's solution (Baxter Healthcare Corporation, Deerfiled, Ill.) supplemented with 1% BSA). […] Serum levels of radioactivity were determined by counting 50 μl of serum in a gamma counter.
(§2) The % of the injected dose taken up by each gram of either whole brain, brain region (hippocampus or frontal cortex) or liver tissue (% Inj dose/g brain) was calculated using the following formula: % Inj dose/g brain=100(Am/Cpt−Vi)Cpt/Inj, where Am/Cpt represents the brain/serum ratio at time t, and Inj is the mean dose injected i.v. Subtracting Vi from the tissue/serum ratio corrects for P-Olg in the vascular space of the whole tissue. This will remove the vascular component so that the quantities expressed represent only the P-Olg that has been taken up by tissue. The values for % Inj dose/g brain will be plotted against their respective time points (min).
Measuring saturability of brain uptake for cocktail ODNs: To determine if brain uptake of each individual P-Olg was saturable, 10 μg/mouse of unlabeled cocktail PS-ODN (either 19 mer or 23 mer) was included in the i.v. injection of either P-19 mer or P-23 mer at a dose of 5×10^5 cpm/200 μl of Lactated Ringer's solution supplemented with 1% BSA [LR-BSA]). Brain and serum samples were collected 30 min after i.v. injection. Results were expressed as brain/serum ratios.
In these studies, mice received an iv injection of either P-19 mer or P-23 mer at a dose of 5×10^5 cpm/200 μl LR-BSA into the jugular vein. Washout of the vascular space was performed to remove any substances that were intravascular or loosely adhered to the capillary lumen of the brain microvasculature.
Mice were anesthetized with 40% urethane and, at 30 min after i.v. injection of P-Olg into the jugular vein, the abdomen was opened and arterial blood was collected from the abdominal aorta. Next, the thorax was opened with a midline sternal incision and the descending thoracic aorta was clamped to cut off the circulation to the lower body. Both jugular veins were severed and an 18-gauge needle connected to a 20 ml syringe containing lactated Ringers (LR) solution was inserted into the left ventricle of the heart. All 20 ml of LR were infused into the mouse heart over a period of 1-2 min. This washes out the vascular space of the brain and drains out the severed jugular veins. […] Next, the homogenate was vortexed and homogenized a second time (3 strokes). All homogenization steps were performed at 4° C. on ice. […] After centrifugation, the supernatant containing the brain parenchyma was separated from the pellet (containing the brain microvasculature) and the level of radioactivity was determined with a Beckman scintillation counter.
Results from the capillary depletion experiments were expressed as the volume of distribution in the brain or capillaries for the injected substance. Volume of distribution (VD) values were expressed as tissue (parenchyma or capillary)/serum ratios and were calculated for both fractions using the following formula: VD=(cpm/gram of tissue)/(cpm/ml of serum)

[6] = Percent of iv injected dose taken up per gram of brain or liver; format: in vivo, mouse
Procedure: as §1, §2
For these studies, the PS-ODNs were delivered iv and relative uptake into the brain and liver (from 5-30 min) were studied.

T1 sequence (P56480 47-529): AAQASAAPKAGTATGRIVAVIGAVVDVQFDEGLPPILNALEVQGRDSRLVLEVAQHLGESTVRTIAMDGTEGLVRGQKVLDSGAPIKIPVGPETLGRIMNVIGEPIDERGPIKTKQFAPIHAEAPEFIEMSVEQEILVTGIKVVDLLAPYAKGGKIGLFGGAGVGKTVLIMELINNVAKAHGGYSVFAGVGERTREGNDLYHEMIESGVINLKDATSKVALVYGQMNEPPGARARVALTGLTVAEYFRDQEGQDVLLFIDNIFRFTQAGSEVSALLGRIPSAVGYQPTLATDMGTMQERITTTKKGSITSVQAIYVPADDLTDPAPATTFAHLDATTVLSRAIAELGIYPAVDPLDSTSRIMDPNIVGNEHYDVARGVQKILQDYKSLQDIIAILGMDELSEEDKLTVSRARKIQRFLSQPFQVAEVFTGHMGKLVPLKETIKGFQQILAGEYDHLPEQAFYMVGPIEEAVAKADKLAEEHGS

For PACAP [PACAP27], the “time at which specific binding reached a maximum” value ([1]; 53 pM, room temperature) was “about 20 min”, the “displacement of I-PACAP27 binding by unlabeled peptide” value (“displacement of I-PACAP27 binding” for short) ([1]; room temperature) was “PACAP38>PACAP27>PACAP(6-38)>PACAP(6-27)” and the “amount of unlabeled PACAP27 above which binding was inhibited competitively” value ([1]; self-inhibition of I-PACAP27 binding) was “above 30 ng”. The Kd [2] was about 0.5 nM.

In the case of “5′-(_P═S)GATCACGTACACATCGACACCAGTCGCCATGACTGAGCTT (dG*dA*dT*dC*dA*dC*dG*dT*dA*dC*dA*dC*dA*dT*dC*dG*dA*dC*dA*dC*dC*dA*dG*dT*dC*dG*dC*dC*dA*dT*dG*dA*dC*dT*dG*dA*dG*dC*dT*dT; listed as Mus musculus) [random 42-mer]”, the “uptake of I-PACAP27 delivered by brain perfusion” value [3] is reported as “no statistically significant effect”.

For vasoactive intestinal polypeptide [VIP], the “displacement of I-PACAP27 binding” value ([1]; room temperature) is given as “not affected” and the Kd [2] is given as over 500 nM.

In the case of “5′-(_P═S)GTGTGGGCCGATGCAAACAGCAG-3′ (antisense dG*dT*dG*dT*dG*dG*dG*dC*dC*dG*dA*dT*dG*dC*dA*dA*dA*dC*dA*dG*dC*dA*dG; listed as Mus musculus) [P-23 mer]”, the “half-life of efflux from the brain” value [4] is reported as 0.797 h, the “rate of brain efflux” value [4] is reported as 0.0063 % of the injected dose/min and the “distribution between brain capillaries and parenchyma (capillary depletion)” value [5] is reported as “detected in the target tissue, the brain capillaries”. The “saturability of brain uptake” value [5] was “significantly reduced”, the “rate of brain uptake (Ki)” value [5] was 0.20 µL/g/min and the “mean regional uptake into hippocampus (HPC) versus frontal cortex (FC) and whole brain (WB)” value [5] was “significantly greater”. For the same substance, the “percentage taken up by each gram of brain” value ([6]; 5 min after iv injection) was 0.010 % Inj dose/g, the “percentage taken up by each gram of liver” value ([6]; 5 min after iv injection) was 2.71 % Inj dose/g and the “percentage taken up by each gram of brain” value ([6]; 10 min after iv injection) was 0.044 % Inj dose/g. For the same substance, the “percentage taken up by each gram of liver” value ([6]; 10 min after iv injection) was 5.33 % Inj dose/g, the “percentage taken up by each gram of brain” value ([6]; 30 min after iv injection) was 0.052 % Inj dose/g and the “percentage taken up by each gram of liver” value ([6]; 30 min after iv injection) was 7.67 % Inj dose/g.

With “PACAP(6-38): PACAP antagonist (FTDSYSRYRKQMAVKKYLAAVLGKRYKQRVKNK; ends and bridges not checked)” the “displacement of I-PACAP27 binding” value ([1]; room temperature) was “PACAP38>PACAP27>PACAP(6-38)>PACAP(6-27)”.

For “PACAP(6-27): PACAP antagonist (FTDSYSRYRKQMAVKKYLAAVL; ends and bridges not checked)”, the “displacement of I-PACAP27 binding” value ([1]; room temperature) was “PACAP38>PACAP27>PACAP(6-38)>PACAP(6-27)”.

For “PACAP38: biologically active form of pituitary adenylate cyclase-activating polypeptide”, the “displacement of I-PACAP27 binding” value ([1]; room temperature) is given as “PACAP38>PACAP27>PACAP(6-38)>PACAP(6-27)” and the Kd [2] is given as about 0.5 nM.

In the case of “5′-(_P═S)TGATTTGGTCTCTGCAGGC-3′ (antisense dT*dG*dA*dT*dT*dT*dG*dG*dT*dC*dT*dC*dT*dG*dC*dA*dG*dG*dC; listed as Mus musculus) [P-19 mer]”, the “half-life of efflux from the brain” value [4] is reported as 3.858 h, the “rate of brain efflux” value [4] is reported as 0.0013 % of the injected dose/min and the “distribution between brain capillaries and parenchyma (capillary depletion)” value [5] is reported as “detected in the target tissue, the brain capillaries”. For the same substance, the “saturability of brain uptake” value [5] was “not significantly decreased”, the “rate of brain uptake (Ki)” value [5] was 0.18 µL/g/min and the “mean regional uptake into hippocampus (HPC) versus frontal cortex (FC) and whole brain (WB)” value [5] was “greater than the uptake into the WB”. The “percentage taken up by each gram of brain” value ([6]; 5 min after iv injection) was 0.042 % Inj dose/g, the “percentage taken up by each gram of liver” value ([6]; 5 min after iv injection) was 447 % Inj dose/g and the “percentage taken up by each gram of brain” value ([6]; 10 min after iv injection) was 0.079 % Inj dose/g. The “percentage taken up by each gram of liver” value ([6]; 10 min after iv injection) was 5.54 % Inj dose/g, the “percentage taken up by each gram of brain” value ([6]; 30 min after iv injection) was 0.116 % Inj dose/g and the “percentage taken up by each gram of liver” value ([6]; 30 min after iv injection) was 10.43 % Inj dose/g.
